Data taken from PMC7419507, “In vitro Cas9-assisted editing of modular polyketide synthase genes to produce desired natural product derivatives” (Nature Communications, 2020).
Several values for one entry are separate records, joined by “and”; a condition that tells them apart may be missing. Equal entries are not always repeated.

What was measured:
[1] = Cytotoxicity assay (CellTiter-Glo, 72 h), MESO-1; type: cell-based; details: human, MESO-1 malignant pleural mesothelioma cells, raw replicate data, read-out: MESO1 viability (%)
How it was run: (§1)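 Luminescent ATP read-out (CellTiter-Glo) quantified surviving cells after a 72 h incubation with 2-fold diluted compounds in 0.5% DMSO, added 4 h post-seeding at 1000 cells/well.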

[2] = tested on: malignant pleural mesothelioma MESO-1 cells; assay: Cytotoxicity assay (CellTiter-Glo, 72 h), MESO-1; type: cell-based; details: raw replicate data
How it was run: as §1

[3] = Cytotoxicity assay (CellTiter-Glo, 72 h), Jurkat; type: cell-based; details: human, Jurkat cells (T lymphoma), raw data (replicates)
How it was run: as §1

T lymphoma Jurkat cells = assay: Cytotoxicity assay (CellTiter-Glo, 72 h), Jurkat; type: cell-based; details: raw data (replicates)
How it was run: as §1

[4] = tested on: Jurkat, SKOV-3 and MESO-1 cells; assay: Cytotoxicity assay, statements for all tested cell lines together; type: cell-based; details: against the tested cell lines (Jurkat, SKOV-3, MESO-1)
How it was run: as §1

[5] = Cytotoxicity assay (CellTiter-Glo, 72 h), SKOV-3; type: cell-based, human; details: human, raw replicate data, read-out: SKOV3 viability (%)
How it was run: as §1

[6] = tested on: human ovarian adenocarcinoma SKOV-3 cells; assay: Cytotoxicity assay (CellTiter-Glo, 72 h), SKOV-3; type: cell-based; details: raw replicate data
How it was run: as §1

CO[C@H]1C[C@@H]2CC[C@@H](C)[C@@](O)(O2)C(=O)C(=O)N2CCCC[C@H]2C(=O)O[C@H]([C@H](C)C[C@@H]2CC[C@@H](O)[C@H](OC)C2)CC(=O)[C@H](C)/C=C(\C)[C@@H](O)CC(=O)[C@H](C)C[C@H](C)/C=C/C=C(C)/C=C/1C [Compound 2, 27-demethoxy-19-methyl rapamycin]
viability at 72 h, 9.53674e-05 uM ([1]; conc 9.53674e-5 uM): 101% | viability at 72 h, 0.000190735 uM ([1]; conc 0.000190735 uM): 97.4% | viability at 72 h, 0.00038147 uM ([1]; conc 0.00038147 uM): 96% | viability at 72 h, 0.000762939 uM ([1]; conc 0.000762939 uM): 100% | viability at 72 h, 0.00152588 uM ([1]; conc 0.00152588 uM): 97% | viability at 72 h, 0.00305176 uM ([1]; conc 0.00305176 uM): 104% | viability at 72 h, 0.00610352 uM ([1]; conc 0.00610352 uM): 105% | viability at 72 h, 0.012207 uM ([1]; conc 0.012207 uM): 103% | viability at 72 h, 0.0244141 uM ([1]; conc 0.0244141 uM): 103% | viability at 72 h, 0.0488281 uM ([1]; conc 0.0488281 uM): 102% | viability at 72 h, 0.0976562 uM ([1]; conc 0.0976562 uM): 107% | viability at 72 h, 0.195312 uM ([1]; conc 0.195312 uM): 103% | viability at 72 h, 0.390625 uM ([1]; conc 0.390625 uM): 109% | viability at 72 h, 0.78125 uM ([1]; conc 0.78125 uM): 93.3% | viability at 72 h, 1.5625 uM ([1]; conc 1.5625 uM): 99.9% | viability at 72 h, 3.125 uM ([1]; conc 3.125 uM): 97.7% | viability at 72 h, 6.25 uM ([1]; conc 6.25 uM): 97.3% | viability at 72 h, 12.5 uM ([1]; conc 12.5 uM): 98% | viability at 72 h, 25 uM ([1]; conc 25 uM): 84% | viability at 72 h, 50 uM ([1]; conc 50 uM): 2.4% | MESO1 viability (%) ([2]; conc 9.53674e-5 uM): 104.9% | MESO1 viability (%) ([2]; conc 0.000190735 uM): 103.1% and 96.1% | MESO1 viability (%) ([2]; conc 0.00038147 uM): 98.5% and 98.1% | MESO1 viability (%) ([2]; conc 0.000762939 uM): 110.7% and 97.2% | MESO1 viability (%) ([2]; conc 0.00152588 uM): 108.1% and 104.8% | MESO1 viability (%) ([2]; conc 0.00305176 uM): 97.8% and 100.1% | MESO1 viability (%) ([2]; conc 0.00610352 uM): 108.3% and 98.8% | MESO1 viability (%) ([2]; conc 0.012207 uM): 101.9% and 99.1% | MESO1 viability (%) ([2]; conc 0.0244141 uM): 104.7% and 100.7% | MESO1 viability (%) ([2]; conc 0.0488281 uM): 104.5% and 103.1% | MESO1 viability (%) ([2]; conc 0.0976562 uM): 98.7% and 102.0% | MESO1 viability (%) ([2]; conc 0.195312 uM): 104.9% and 106.8% | MESO1 viability (%) ([2]; conc 0.390625 uM): 97.6% and 96.8% | MESO1 viability (%) ([2]; conc 0.78125 uM): 95.1% and 98.4% | MESO1 viability (%) ([2]; conc 1.5625 uM): 99.0% and 101.9% | MESO1 viability (%) ([2]; conc 3.125 uM): 94.6% and 96.8% | MESO1 viability (%) ([2]; conc 6.25 uM): 96.9% and 103.3% | MESO1 viability (%) ([2]; conc 12.5 uM): 98.9% and 92.4% | MESO1 viability (%) ([2]; conc 25 uM): 86.3% and 80.9% | MESO1 viability (%) ([2]; conc 50 uM): 1.2% and 1.3% | viability at 72 h, 9.53674e-05 uM ([3]; conc 9.53674e-5 uM): 101% | viability at 72 h, 0.000190735 uM ([3]; conc 0.000190735 uM): 101% | viability at 72 h, 0.00038147 uM ([3]; conc 0.00038147 uM): 105% | viability at 72 h, 0.000762939 uM ([3]; conc 0.000762939 uM): 110% | viability at 72 h, 0.00152588 uM ([3]; conc 0.00152588 uM): 104% | viability at 72 h, 0.00305176 uM ([3]; conc 0.00305176 uM): 96% | viability at 72 h, 0.00610352 uM ([3]; conc 0.00610352 uM): 102% | viability at 72 h, 0.012207 uM ([3]; conc 0.012207 uM): 103% | viability at 72 h, 0.0244141 uM ([3]; conc 0.0244141 uM): 98.4% | viability at 72 h, 0.0488281 uM ([3]; conc 0.0488281 uM): 101% | viability at 72 h, 0.0976562 uM ([3]; conc 0.0976562 uM): 98.8% | viability at 72 h, 0.195312 uM ([3]; conc 0.195312 uM): 97.6% | viability at 72 h, 0.390625 uM ([3]; conc 0.390625 uM): 103% | viability at 72 h, 0.78125 uM ([3]; conc 0.78125 uM): 95.4% | viability at 72 h, 1.5625 uM ([3]; conc 1.5625 uM): 97.9% | viability at 72 h, 3.125 uM ([3]; conc 3.125 uM): 90.3% | viability at 72 h, 6.25 uM ([3]; conc 6.25 uM): 93.3% | viability at 72 h, 12.5 uM ([3]; conc 12.5 uM): 79.6% | viability at 72 h, 25 uM ([3]; conc 25 uM): 26.4% | viability at 72 h, 50 uM ([3]; conc 50 uM): 0.7% | Jurkat viability (%) (T lymphoma Jurkat cells; conc 9.53674e-5 uM): 102.6% and 90.2% | Jurkat viability (%) (T lymphoma Jurkat cells; conc 0.000190735 uM): 99.7% and 100.1% | Jurkat viability (%) (T lymphoma Jurkat cells; conc 0.00038147 uM): 102.4% and 92.6% | Jurkat viability (%) (T lymphoma Jurkat cells; conc 0.000762939 uM): 99.9% and 100.9% | Jurkat viability (%) (T lymphoma Jurkat cells; conc 0.00152588 uM): 104.7% and 99.5% | Jurkat viability (%) (T lymphoma Jurkat cells; conc 0.00305176 uM): 96.2% and 98.5% | Jurkat viability (%) (T lymphoma Jurkat cells; conc 0.00610352 uM): 101.1% | Jurkat viability (%) (T lymphoma Jurkat cells; conc 0.012207 uM): 91.7% | Jurkat viability (%) (T lymphoma Jurkat cells; conc 0.0244141 uM): 102.1% | Jurkat viability (%) (T lymphoma Jurkat cells; conc 0.0488281 uM): 95.8% and 99.2% | Jurkat viability (%) (T lymphoma Jurkat cells; conc 0.0976562 uM): 102.7% and 105.1% | Jurkat viability (%) (T lymphoma Jurkat cells; conc 0.195312 uM): 95.3% and 96.4% | Jurkat viability (%) (T lymphoma Jurkat cells; conc 0.390625 uM): 104.4% | Jurkat viability (%) (T lymphoma Jurkat cells; conc 0.78125 uM): 92.4% and 89.9% | Jurkat viability (%) (T lymphoma Jurkat cells; conc 1.5625 uM): 98.7% | Jurkat viability (%) (T lymphoma Jurkat cells; conc 3.125 uM): 91.9% and 84.9% | Jurkat viability (%) (T lymphoma Jurkat cells; conc 6.25 uM): 85.7% and 88.3% | Jurkat viability (%) (T lymphoma Jurkat cells; conc 12.5 uM): 78.8% and 80.3% | Jurkat viability (%) (T lymphoma Jurkat cells; conc 25 uM): 27.8% and 28.9% | Concentration at which cytotoxic activities were shown [4]: over 10 µM | viability at 72 h, 9.53674e-05 uM ([5]; SKOV-3 cells (ovarian adenocarcinoma), conc 9.53674e-5 uM): 94.7% | viability at 72 h, 0.000190735 uM ([5]; SKOV-3 cells (ovarian adenocarcinoma), conc 0.000190735 uM): 95.8% | viability at 72 h, 0.00038147 uM ([5]; SKOV-3 cells (ovarian adenocarcinoma), conc 0.00038147 uM): 97.8% | viability at 72 h, 0.000762939 uM ([5]; SKOV-3 cells (ovarian adenocarcinoma), conc 0.000762939 uM): 98.5% | viability at 72 h, 0.00152588 uM ([5]; SKOV-3 cells (ovarian adenocarcinoma), conc 0.00152588 uM): 106% | viability at 72 h, 0.00305176 uM ([5]; SKOV-3 cells (ovarian adenocarcinoma), conc 0.00305176 uM): 97% | viability at 72 h, 0.00610352 uM ([5]; SKOV-3 cells (ovarian adenocarcinoma), conc 0.00610352 uM): 105% | viability at 72 h, 0.012207 uM ([5]; SKOV-3 cells (ovarian adenocarcinoma), conc 0.012207 uM): 90.8% | viability at 72 h, 0.0244141 uM ([5]; SKOV-3 cells (ovarian adenocarcinoma), conc 0.0244141 uM): 96.5% | viability at 72 h, 0.0488281 uM ([5]; SKOV-3 cells (ovarian adenocarcinoma), conc 0.0488281 uM): 96.1% | viability at 72 h, 0.0976562 uM ([5]; SKOV-3 cells (ovarian adenocarcinoma), conc 0.0976562 uM): 97.7% | viability at 72 h, 0.195312 uM ([5]; SKOV-3 cells (ovarian adenocarcinoma), conc 0.195312 uM): 97.9% | viability at 72 h, 0.390625 uM ([5]; SKOV-3 cells (ovarian adenocarcinoma), conc 0.390625 uM): 98.8% | viability at 72 h, 12.5 uM ([5]; SKOV-3 cells (ovarian adenocarcinoma), conc 12.5 uM): 91.2% | viability at 72 h, 25 uM ([5]; SKOV-3 cells (ovarian adenocarcinoma), conc 25 uM): 100% | viability at 72 h, 50 uM ([5]; SKOV-3 cells (ovarian adenocarcinoma), conc 50 uM): 20.5% | viability at 72 h, 0.78125 uM ([5]; SKOV-3 ovarian adenocarcinoma cells, conc 0.78125 uM): 93.9% | viability at 72 h, 1.5625 uM ([5]; SKOV-3 ovarian adenocarcinoma cells, conc 1.5625 uM): 95.7% | viability at 72 h, 3.125 uM ([5]; SKOV-3 ovarian adenocarcinoma cells, conc 3.125 uM): 102% | viability at 72 h, 6.25 uM ([5]; SKOV-3 ovarian adenocarcinoma cells, conc 6.25 uM): 102% | SKOV3 viability (%) ([6]; conc 9.53674e-5 uM): 102.9% and 98.3% | SKOV3 viability (%) ([6]; conc 0.000190735 uM): 104.0% and 97.1% | SKOV3 viability (%) ([6]; conc 0.00038147 uM): 97.2% and 104.3% | SKOV3 viability (%) ([6]; conc 0.000762939 uM): 101.6% and 95.9% | SKOV3 viability (%) ([6]; conc 0.00152588 uM): 101.4% and 101.1% | SKOV3 viability (%) ([6]; conc 0.00305176 uM): 96.6% and 99.8% | SKOV3 viability (%) ([6]; conc 0.00610352 uM): 102.9% and 97.3% | SKOV3 viability (%) ([6]; conc 0.012207 uM): 93.7% | SKOV3 viability (%) ([6]; conc 0.0244141 uM): 96.2% and 94.8% | SKOV3 viability (%) ([6]; conc 0.0488281 uM): 100.2% and 102.5% | SKOV3 viability (%) ([6]; conc 0.0976562 uM): 99.8% and 96.7% | SKOV3 viability (%) ([6]; conc 0.195312 uM): 94.3% and 95.1% | SKOV3 viability (%) ([6]; conc 0.390625 uM): 99.5% and 95.3% | SKOV3 viability (%) ([6]; conc 0.78125 uM): 97.2% | SKOV3 viability (%) ([6]; conc 1.5625 uM): 98.7% and 99.8% | SKOV3 viability (%) ([6]; conc 3.125 uM): 98.6% and 90.6% | SKOV3 viability (%) ([6]; conc 6.25 uM): 97.2% and 96.7% | SKOV3 viability (%) ([6]; conc 12.5 uM): 95.5% and 90.7% | SKOV3 viability (%) ([6]; conc 25 uM): 97.5% | SKOV3 viability (%) ([6]; conc 50 uM): 21.5% and 18.1%
